From PMC8887552 (The Journal of antibiotics, 2018) come the findings set out here.

Where no end group is shown, it is not given here.

The test system of data set [1] is X. axonopodis. The class given is cell-based, Xanthomonas axonopodis. To be noted: OD 600 after 16 h of growth, serial two-fold dilutions, room temperature, n = 3.
Data set [2] concerns sheep red blood cells (RBCs). The class given is cell-based.

For “LSLIAAAGKETIRQYLKNEIKKKGRKAVIAW [Syn-safencin]”, in data set [1], the minimum inhibitory concentration (MIC) amounted to 8 µM. Besides, the “hemolytic activity (in words)” value in data set [2] is listed as “mild hemolytic activity”.

By MIC is commonly meant the lowest concentration that inhibits growth of the organism. Lower therefore signals a more susceptible organism.
